What was measured:
[1] = system: strains carrying the wild-type murA gene (single copy or multiple copies); assay: Growth on MHB plates with phosphomycin, wild-type murA; type: cell-based, E. coli
Method: (§1) E. coli mutants resistant to phosphomycin were obtained by plating E. coli MC1061 cells in the presence of 5 μg/ml phosphomycin (about 5×MIC), in MHB. Colonies of these resistant mutants were picked and repatched on MHB plates supplemented with 5 μg/ml. […] To determine whether the phenotype of phosphomycin resistance is due to these changes in the murA gene, primers murA-F1 and murA-R1 were used to amplify up a region consisting of 1 kb upstream of the murA gene and 1 kb downstream of the murA gene using as template, DNA extracted from MC1061 and from the phosphomycin-resistant murA mutants. The 3.5 kb PCR amplification fragments were cloned into a high copy vector, and 3 independent clones were picked for each type. The clones, carrying multi-copy plasmids with either wild-type murA or mutated mura, were streaked onto MHB plates and on MHB supplemented with 5, 25, and 50 ,μg/ml phosphomycin. The wild-type MC1061 strain (carrying a single copy of the wild-type murA gene) and the original mutants resistant to phosphomycin were used as controls. All strains grew on MHB plates without phosphomycin. On MHB plates with 5 μg/ml phosphomycin, there was slight growth for strains carrying the wild-type murA gene, whether present in single copy or multiple copies, whereas there was robust growth for cells with the mutated murA gene, whether present in single or multiple copies. On MHB plates with 25 μg/ml phosphomycin, there was no growth for strains carrying the wild-type mura gene, whether present in single copy or multiple copies, but there was robust growth for cells carrying single or multiple copies of the mutated murA gene. On MHB plates with 50 μg/ml phosphomycin, there was no growth for strains carrying wild-type murA (whether present in single copy or multiple copies) but slight growth for strains carrying the mutated murA gene whether present in single or multiple copies. Clearly, the mutants isolated because of their phenotype of resistance to phosphomycin carry mutant mura genes which can confer resistance when transferred to other cells by transformation. […]

[2] = system: cells with the mutated murA gene (single or multiple copies); assay: Growth on MHB plates with phosphomycin, mutated murA; type: cell-based, E. coli
Method: as §1

E. coli strain WO-153 = assay: Genome-wide E. coli ORFmer overexpression rescue (OER) assay; type: cell-based; settings: for PCR verification of OER clones: expected target gene: liquid microtiter assay, expected targets folA, murA, fabI; for PCR verification of OER clones: expected clone: two plate assay format (disk diffusion, gradient plate)
Method: Over expression Rescue Assays. Over expression assays were conducted with the E. coli strain WO-153 described in Table 7. Construction of WO-0153. […] The asmB1 mutation is a G to A transition at position 628 in the 1pxC gene. […] The tolC gene encodes an outer membrane protein that acts as a channel for the acrAB efflux pumps (See for example, Fralick, J. 1996. J. Bacteriol. 178:5801-5805). […] WO-0153 was constructed as follows. The asmB1 mutation was introduced into a DNA fragment containing the 1pxC gene and 1 kb of the 5′ end of the secA gene by site directed mutagenesis of the 1pxC gene using standard methods. A kan^R resistance cassette flanked by FRT sites was introduced 60 bp downstream of the 1pxC gene. The linear DNA construct was introduced into electrocompetent and recombinogenic E. coli KM354 (pTP223) as described by Murphy (See for example, Murphy, 1998, J. Bacteriol. 180: 2063-71). Transformants were selected on LB agar containing kanamycin (35 mcg/ml) and screened for sensitivity to novobiocin (20 mcg/ml). The presence of the asmB1 mutation in clones with the expected phenotype was verified by DNA sequence analysis. The kanR gene flanked by FRT sites was then excised from the 1pxC-secA intergenic region using a previously described method (See for example, Cherepanove, P. P, and Wackernagel, W. 1995. Gene 158: 9-14.). […] 178:5138-5143; Fralick, J. (1996). J. Bacteriol. 178:5801-5805; Fralick, J. A., et al. (1994) J. Bacteriol. 176:6404-6406; and Cherepanove, P. P, et al., (1995) Gene 158:9-14. […] Plasmid library DNA was transformed into WO-153 by electroporation as described above. Cells were collected from transformation plates by scraping and were equalized to an optical density of 1.53 on a Beckman DU650 spectrophotometer([…]). Groups of five libraries were mixed and frozen in LB media plus 10% (vol/vol) glycerol by immersion in a dry-ice/ethanol bath for 5 minutes.
Over-expression assays were performed in liquid media in a microtiter format, in a gradient plate format, or in a disk-diffusion format. The protocol used for the microtiter format was similar to the protocol described above for the MIC assay. Aliquots of 5 library pools spanning the genome were thawed at room temperature and 200 ul of each was inoculated into its own 20 ml of Mueller Hinton media containing ampicillin at 200 ug/ml and anhydrous tetracycline inducer as appropriate. Typically, replicates were performed using a number of final inducer concentrations, ranging from 0 to 100 ng/ml. Following an adequate mixing, 50 ul of inoculated media was mixed with 50 ul of the test antibiotic in Nunc brand 96-well microtiterplates. Typically, each group of five libraries was mixed with a range of concentrations of antibiotic spanning the minimum inhibitory concentration (MIC) of the antibiotic. […] Columns may contain 10 different groups of libraries as well as null vector and no innoculum controls. After mixing inoculum plus media with antibiotic, well contents were mixed by pipetting and incubated at 37° C. for 16 to 20 hours. Optical density at 600 nm was measured using a Molecular Devices SpectraMAX 250 spectrophotometer. […] Contents of wells showing rescue were transferred to LB agar plates containing ampicillin at 100 ug/ml, and were spread to obtain single colonies. Alternately, it is possible to maintain selection for the antibiotic being assayed by including it in the agar plates at this point.
OER Assay using Disk diffusion and Gradient Plate Assay formats. In the Disk diffusion plate format, the 3 inocula (see below) were plated on MHB plates containing ampicillin (100 mcg/ml) and anhydrous tetracycline (a-tet, 100 ng/ml). Two paper disks (6 mm diameter) containing 10×and 20×MIC of the test antiobiotic were placed on the surface of the plate.

Structure (SMILES) | growth on MHB plates ([1]; 5 μg/ml phosphomycin) | growth on MHB plates ([1]; 25 μg/ml phosphomycin) | growth on MHB plates ([1]; 50 μg/ml phosphomycin) | growth on MHB plates ([2]; 5 μg/ml phosphomycin) | growth on MHB plates ([2]; 25 μg/ml phosphomycin) | growth on MHB plates ([2]; 50 μg/ml phosphomycin) | PCR verification of OER clones: expected target gene (E. coli strain WO-153) | PCR verification of OER clones: expected clone (E. coli strain WO-153)
C[C@@H]1O[C@@H]1P(=O)(O)O [phosphomycin] | slight growth | no growth | no growth | robust growth | robust growth | slight growth | expected target gene was identifed | expected clone was isolated
COc1cc(Cc2cnc(N)nc2N)cc(OC)c1OC [trimethoprim] |  |  |  |  |  |  | expected target gene was identifed | expected clone was isolated

Source: US20030108872A1, “Genomics-assisted rapid identification of targets” (priority 2000, published 2003)
